Assays:
ERα = target: T1, ERα (Homo sapiens, UniProt P03372); assay: ER affinity assay (ERα), [3H]-E2 displacement; conditions: Relative Binding Affinity, E2 = 100%; recombinant human protein
T1 sequence (P03372 1-595): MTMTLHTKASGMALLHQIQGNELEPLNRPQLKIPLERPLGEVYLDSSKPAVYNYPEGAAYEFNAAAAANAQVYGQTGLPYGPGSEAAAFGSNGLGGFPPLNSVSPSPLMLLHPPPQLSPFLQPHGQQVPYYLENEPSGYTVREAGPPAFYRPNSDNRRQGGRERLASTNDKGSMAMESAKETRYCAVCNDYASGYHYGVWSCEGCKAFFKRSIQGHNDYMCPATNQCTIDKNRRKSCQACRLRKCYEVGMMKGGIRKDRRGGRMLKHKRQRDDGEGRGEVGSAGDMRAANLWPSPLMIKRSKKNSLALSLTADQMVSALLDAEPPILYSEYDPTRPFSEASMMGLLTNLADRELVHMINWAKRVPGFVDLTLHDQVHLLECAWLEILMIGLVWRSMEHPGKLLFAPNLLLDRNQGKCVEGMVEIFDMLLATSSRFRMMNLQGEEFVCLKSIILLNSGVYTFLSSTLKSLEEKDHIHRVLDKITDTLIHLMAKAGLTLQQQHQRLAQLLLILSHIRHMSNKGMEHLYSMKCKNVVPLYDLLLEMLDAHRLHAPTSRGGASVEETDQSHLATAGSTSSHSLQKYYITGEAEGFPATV
Protocol: (§1) The binding affinity of selected compounds to the ERα and ERβ was determined according to Zimmermann et al. (Zimmermann, J. et al., 3. Steroid Biochem. Mol. Biol., 94:57-66 (2005)) using recombinant human proteins. Briefly, 0.25 μM of ERα or ERβ, respectively, were incubated with [^3H]-E2 (10 nM) and test compound for 1 h at room temperature. The potential inhibitors were dissolved in DMSO (5% final concentration). Evaluation of non-specific-binding was performed with diethylstilbestrol (10 μM). After incubation, ligand-receptor complexes were selectively bound to hydroxyapatite (5 g/60 ml TE-buffer). The formed complex was separated, washed and resuspended in ethanol. For radiodetection, scintillator cocktail (Quickszint 212, Zinsser Analytic, Frankfurt) was added and the samples were measured in a liquid scintillation counter (Rack Beta Primo 1209, Wallac, Turku). […] The compound concentration to displace 50% of the receptor bound [^3H]-E2 were determined. Unlabelled E2 was used as a reference. For determination of the relative binding affinity (RBA) the ratio was calculated according to the following equation: […]
(§2) After the assay was established and validated a modification was made to increase throughput. […] Results were reported as RBA ranges.

ERβ = ERβ (Homo sapiens, UniProt Q92731); assay: ER affinity assay (ERβ), [3H]-E2 displacement; conditions: Relative Binding Affinity, E2 = 100%; recombinant human protein
ERβ, sequence (Q92731 whole entry): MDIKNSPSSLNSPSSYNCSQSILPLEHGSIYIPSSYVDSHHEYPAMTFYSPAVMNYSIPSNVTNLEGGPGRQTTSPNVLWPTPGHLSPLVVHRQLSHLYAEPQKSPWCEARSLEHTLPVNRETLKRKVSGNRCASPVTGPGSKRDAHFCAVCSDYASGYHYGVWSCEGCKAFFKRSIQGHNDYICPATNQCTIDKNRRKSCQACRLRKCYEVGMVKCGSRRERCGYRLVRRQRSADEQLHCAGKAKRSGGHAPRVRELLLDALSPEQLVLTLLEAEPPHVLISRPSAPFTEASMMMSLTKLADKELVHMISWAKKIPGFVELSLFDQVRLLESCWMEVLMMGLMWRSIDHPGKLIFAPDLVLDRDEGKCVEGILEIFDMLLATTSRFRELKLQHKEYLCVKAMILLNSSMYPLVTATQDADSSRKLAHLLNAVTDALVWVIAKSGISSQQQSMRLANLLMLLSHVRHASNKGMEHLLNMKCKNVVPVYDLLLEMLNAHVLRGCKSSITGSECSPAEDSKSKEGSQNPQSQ
Protocol: as §1, §2

17β-HSD1 = target: T2, 17β-HSD1 (Homo sapiens, UniProt P14061); assay: Inhibition of 17β-HSD1 in cell-free assay; type: biochemical; conditions: human placenta, cytosolic fraction, substrate E1 500 nM, cofactor NADH 500 μM
T2 construct: For the partial purification of 17β-HSD1, the cytosolic fraction was precipitated with ammonium sulfate; from tissue; host or cells: human placenta, cytosolic fraction
T2 sequence (P14061 1-328): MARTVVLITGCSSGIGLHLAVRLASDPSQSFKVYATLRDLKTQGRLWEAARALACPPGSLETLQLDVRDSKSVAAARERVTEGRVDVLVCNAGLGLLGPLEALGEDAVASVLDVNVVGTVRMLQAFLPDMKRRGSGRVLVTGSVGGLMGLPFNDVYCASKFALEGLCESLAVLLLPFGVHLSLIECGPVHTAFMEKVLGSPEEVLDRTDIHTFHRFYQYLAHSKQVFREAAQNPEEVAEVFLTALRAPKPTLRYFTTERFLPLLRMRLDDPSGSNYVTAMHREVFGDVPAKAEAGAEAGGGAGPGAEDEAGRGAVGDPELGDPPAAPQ
Protocol: (§3) Fresh human placenta was homogenized. Cytosolic and microsomal fractions were separated by centrifugation at 1000 g, 10000 g and 150000 g. 17β-HSD2 was obtained directly from the microsomal fraction. For the partial purification of 17β-HSD1, the cytosolic fraction was precipitated with ammonium sulfate. Aliquots containing 17β-HSD1 or 17β-HSD2 were stored frozen.
The 17β-HSD1 inhibition assay was performed similarly to the 17β-HSD2 test. The cytosolic fraction was incubated with NADH [500 μM], test compound and a mixture of unlabelled- and [^3H]-E1 (final concentration: 500 nM, 0.15 μCi) for 10 min at 37° C. Further treatment of the samples and HPLC separation was carried out as mentioned above for 17β-HSD2.

17β-HSD2 = target: T3, 17β-HSD2 (Homo sapiens, UniProt P37059); assay: Inhibition of 17β-HSD2 in cell-free assay; type: biochemical; design: 17β-HSD2 was obtained directly from the microsomal fraction; from tissue; host or cells: human placenta, microsomal fraction; conditions: human placenta, microsomal fraction, substrate E2 500 nM, cofactor NAD+ 1500 μM
T3 sequence (P37059 1-387): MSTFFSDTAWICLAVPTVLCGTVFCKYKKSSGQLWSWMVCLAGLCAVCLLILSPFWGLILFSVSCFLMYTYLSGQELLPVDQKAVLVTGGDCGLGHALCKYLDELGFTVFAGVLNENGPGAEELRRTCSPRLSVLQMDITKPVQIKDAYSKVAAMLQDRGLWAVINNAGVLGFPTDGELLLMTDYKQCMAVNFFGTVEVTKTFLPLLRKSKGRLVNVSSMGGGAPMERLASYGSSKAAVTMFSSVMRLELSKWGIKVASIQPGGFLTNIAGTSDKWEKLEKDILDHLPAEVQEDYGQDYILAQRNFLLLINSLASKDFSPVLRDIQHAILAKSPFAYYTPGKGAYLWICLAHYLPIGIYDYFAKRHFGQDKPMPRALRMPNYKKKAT
Protocol: as §3
Inhibitor stock solutions were prepared in DMSO. Final concentration of DMSO was adjusted to 1% in all samples. The enzymatic reaction was started by addition of a mixture of unlabelled- and [^3H]-E2 (final concentration: 500 nM, 0.11 μCi). After 20 min at 37° C., the incubation was stopped with HgCl2 and the mixture was extracted with ether. After evaporation, the steroids were dissolved in acetonitrile. E1 and E2 were separated using acetonitrile/water (45:55) as mobile phase in a C18 RP chromatography column (Nucleodur C18, 3 μm, Macherey-Nagel, Duren) connected to a HPLC-system (Agilent 1100 Series, Agilent Technologies, Waldbronn). Detection and quantification of the steroids were performed using a radioflow detector (Berthold Technologies, Bad Wildbad). The conversion rate was calculated according to the following equation: […]

SMILES	ERα RBA (%) (ERα)	ERβ RBA (%) (ERβ)	other results
CN(Cc1cccc(O)c1)C(=O)c1ccc(-c2cccc(F)c2)s1 [compound 41, 5-(3-Fluorophenyl)-N-(3-hydroxybenzyl)-N-methylthiophene-2-carboxamide]			IC50 (17β-HSD1): 3.15 µM; IC50 (17β-HSD2): 0.326 µM
COc1cccc(CN(C)C(=O)c2ccc(-c3ccc(C#N)cc3)s2)c1 [compound 31, 5-(4-Cyanophenyl)-N-(3-methoxybenzyl)-N-methylthiophene-2-carboxamide]			% inhibition 17β-HSD1 (17β-HSD1; inhibitor concentration 1 μM): n.i.^e; % inhibition 17β-HSD2 (17β-HSD2; inhibitor concentration 1 μM): n.i.^e
COc1ccc(-c2ccc(C(=O)N(C)Cc3cccc(OC)c3)s2)cc1 [compound 25, N-(3-Methoxybenzyl)-5-(4-methoxyphenyl)-N-methylthiophene-2-carboxamide]	<0.1%	<0.1%	
COc1cccc(-c2ccc(C(=O)N(C)c3cccc(OC)c3)s2)c1 [compound 47, N,5-bis(3-Methoxyphenyl)-N-methylthiophene-2-carboxamide]	<0.1%	<0.1%	
CN(CCc1cccc(O)c1)C(=O)c1ccc(-c2cccc(O)c2)s1 [compound 18, N-(3-Hydroxyphenethyl)-5-(3-hydroxyphenyl)-N-methylthiophene-2-carboxamide]			inhibition at 1 µM (17β-HSD1; inhibitor concentration 1 μM): 23%; inhibition at 1 µM (17β-HSD2; inhibitor concentration 1 μM): 37%
CN(Cc1cccc(O)c1)C(=O)c1ccc(-c2ccccc2)s1 [compound 30, N-(3-Hydroxybenzyl)-N-methyl-5-phenylthiophene-2-carboxamide]	<0.1%	<0.1%	
CN(Cc1cccc(O)c1)C(=O)c1ccc(-c2ccc(F)cc2)s1 [compound 42, 5-(4-Fluorophenyl)-N-(3-hydroxybenzyl)-N-methylthiophene-2-carboxamide]	<0.1%	<0.1%	
COc1cccc(CCN(C)C(=O)c2ccc(-c3cccc(OC)c3)s2)c1 [compound 17, N-(3-Methoxyphenethyl)-5-(3-methoxyphenyl)-N-methylthiophene-2-carboxamide]			% inhibition 17β-HSD1 (17β-HSD1; inhibitor concentration 1 μM): n.i.^e; inhibition at 1 µM (17β-HSD2; inhibitor concentration 1 μM): 31%
COc1ccc(-c2ccc(C(=O)N(C)Cc3ccccc3)s2)cc1 [compound 35, N-Benzyl-5-(4-methoxyphenyl)-N-methylthiophene-2-carboxamide]	<0.1%	<0.1%	
CN(Cc1cccc(O)c1)C(=O)c1cccc(-c2ccc(O)cc2)c1 [compound 6, 4′-Hydroxy-N-(3-hydroxybenzyl)-N-methylbiphenyl-3-carboxamide]	<0.1%	<0.1%	
COc1cccc(CN(C)C(=O)c2ccc(-c3cccc(OC)c3)cc2)c1 [compound 1, 3′-Methoxy-N-(3-methoxybenzyl)-N-methylbiphenyl-4-carboxamide]	<0.1%	<0.1%	
COc1cccc(-c2ccc(C(=O)N(C)Cc3ccccc3)s2)c1 [compound 33, N-Benzyl-5-(3-methoxyphenyl)-N-methylthiophene-2-carboxamide]	<0.1%	<0.1%	
Cc1cccc(-c2ccc(C(=O)N(C)Cc3cccc(O)c3)cc2)c1 [compound 4, N-(3-hydroxybenzyl)-N,3′-dimethylbiphenyl-4-carboxamide]	<0.1%	<0.1%	

Continued, in another order:

ERα RBA (%) (ERα)	ERβ RBA (%) (ERβ)	SMILES	other results
<0.1%	<0.1%	COc1ccc(-c2ccc(C(=O)N(C)c3cccc(OC)c3)s2)cc1 [compound 55, N-(3-Methoxyphenyl)-5-(4-methoxyphenyl)-N-methylthiophene-2-carboxamide]	
<0.1%	<0.1%	COc1cccc(N(C)C(=O)c2ccc(-c3c(F)ccc(OC)c3F)s2)c1 [compound 65, 5-(2,6-Difluoro-3-methoxyphenyl)-N-(3-methoxyphenyl)-N-methylthiophene-2-carboxamide]	
<0.1%	<0.1%	Cc1cccc(-c2ccc(C(=O)N(C)c3ccccc3F)s2)c1 [compound 74, N-(2-fluorophenyl)-N-methyl-5-m-tolylthiophene-2-carboxamide]	
<0.1%	<0.1%	COc1cccc(N(C)C(=O)c2ccc(-c3cccc(SC)c3)s2)c1 [compound 63, N-(3-methoxyphenyl)-N-methyl-5-(3-(methylthio)phenyl)thiophene-2-carboxamide]	
<0.1%	<0.1%	COc1cccc(-c2ccc(C(=O)N(C)Cc3cccc(O)c3)s2)c1 [compound 45, N-(3-Hydroxybenzyl)-5-(3-methoxyphenyl)-N-methylthiophene-2-carboxamide]	IC50 (17β-HSD1): 23.3 µM
<0.1%	<0.1%	COc1cccc(-c2ccc(C(=O)N(C)c3cccc(C)c3)s2)c1F [compound 72, 5-(2-Fluoro-3-methoxyphenyl)-N-methyl-N-(m-tolylthiophene)-2-carboxamide]	
<0.1%	<0.1%	COc1cccc(N(C)C(=O)c2ccc(-c3cccc(C)c3)s2)c1 [compound 64, N-(3-methoxyphenyl)-N-methyl-5-m-tolylthiophene-2-carboxamide]	
<0.1%	<0.1%	COc1cccc(N(C)C(=O)c2ccc(-c3cccc(C)c3F)s2)c1 [compound 66, 5-(2-Fluoro-3-methylphenyl)-N-(3-methoxyphenyl)-N-methylthiophene-2-carboxamide]	
<0.1%	<0.1%	COc1cccc(-c2ccc(C(=O)N(C)c3ccccc3)s2)c1 [compound 67, 5-(3-Methoxyphenyl)-N-methyl-N-phenylthiophene-2-carboxamide]	

— US20140057953A1, “BIARYL DERIVATIVES AS SELECTIVE 17BETA-HYDROXYSTEROID DEHYDROGENASE TYPE 2 INHIBITORS” (priority 2011, published 2014)
